Laboratory results as given in US7919577B2, “Adrenocorticotropic hormone analogs and related methods” (Colorado Seminary, priority 2004, dated 2011).

Tests used:
[1] = system: dexamethasone-suppressed male FVB/N mice; test: in vivo Serum Corticosteroid Inhibition Assay (Example 2); set-up: species or system mouse; details: mACTH(1-24) alone 120 minutes after dexamethasone, blood one hour later
Description: The in vivo Serum Corticosteroid Inhibition Assay can include sequential administration of the test compound and the corticosteroid-producing compound by the following steps: first, an agent to suppress endogenous ACTH production was administered to a mouse subject, such as an intraperitoneal injection of dexamethasone; second, after waiting a suitable period of time for suppression of endogenous ACTH production (e.g., 1.5-2.0 hours), a test compound was administered to the mouse by a suitable method, such as intraperitoneal injection; third, after waiting a suitable period of time (e.g., 1 hour) for action of the test compound, a compound with corticosteroid-producing activity can be administered to the mouse by a suitable method, such as intraperitoneal injection; and fourth, after waiting a suitable period of time for the biological activity of both administered compounds to occur (e.g., 1 hour), a blood sample was taken from the subject and the level of serum corticosterone was determined by a suitable method, such as a competitive radioimmunoassay using ^125I RIA kit (ICN, Costa Mesa, Calif.). Optionally, steps two and three can be reversed (administering the corticosteroid-producing compound first, followed by administration of the test compound). The in vivo Serum Corticosteroid Inhibition Assay can also include co-administration of the test compound and the corticosteroid-producing compound by the following steps: first, an agent to suppress endogenous ACTH production was administered to a mouse subject, such as an intraperitoneal injection of dexamethasone; second, after waiting a suitable period of time for suppression of endogenous ACTH production (e.g., 1.5-2.0 hours), the corticosteroid-producing compound and a test compound were co-administered to the mouse by a suitable method, such as intraperitoneal injection; and third, after waiting a suitable period of time for the biological activity of both administered compounds to occur (e.g., 1 hour), a blood sample was taken from the subject and the level of serum corticosterone was determined by a suitable method, such as a competitive radioimmunoassay using ^125I RIA kit (ICN, Costa Mesa, Calif.). Also, in some embodiments, the first step in any in vivo Serum Corticosteroid Inhibition Assay can be replaced by a measurement of the initial endogenous corticosteroid or corticosteroid level in the blood of the subject in the manner of step four, instead of administering the agent to suppress ACTH production. Example 2 describes murine in vivo Serum Corticosteroid Inhibition Assays in detail.
A series of separate in vivo Serum Corticosteroid Inhibition Assays were performed to identify ACTH analogs that inhibit ACTH adrenal hormone production in vivo. The serum corticosterone levels of dexamethasone-suppressed mice were measured as described in Example 2 after administration of (1) ACTH (corticosteroid-producing compound), (2) an ACTH analog (test compound) followed by subsequent administration of ACTH, (3) a combination of ACTH and the ACTH analog and (4) the ACTH analog alone.
The in vivo Serum Corticosteroid Inhibition Assay was performed according the following method. The ACTH analog test compounds, such as those showing low activities in Example 1, were tested for their abilities to inhibit adrenal hormone production induced by unmodified ACTH.
First, two to three month-old male FVB/N mice from our colony, five per group, were injected intraperitoneally with dexamethasone (0.4 mg/0.1 ml PBS per mouse; Sigma, St. Louis, Mo.) to suppress their endogenous ACTH production.
Second, ninety to one hundred twenty minutes later, animals were injected subcutaneously between the shoulder blades with wild type ACTH and/or test ACTH analog peptides (1 μg/0.1 mL PBS/0.5% BSA) or with vehicle alone (0.1 mL PBS/0.5% BSA). […]

[2] = target: T1, adrenal ACTH receptors such as MC-2R (explanted adrenal membrane) (Mus musculus, UniProt Q64326+Q9D159); test: in vitro Serum-free Adrenal Competitive Binding Assay (Example 3); details: cold peptide at 10 nM, 100 nM, 1000 nM; CPM; FIG. 3
T1 construct: the adrenal halves were macerated or otherwise dissociated using Dounce Homogenizer to form a membrane fraction; from tissue; host or cells: mouse adrenal glands (explanted, homogenised to a membrane fraction)
T1 sequence (Q64326 whole entry): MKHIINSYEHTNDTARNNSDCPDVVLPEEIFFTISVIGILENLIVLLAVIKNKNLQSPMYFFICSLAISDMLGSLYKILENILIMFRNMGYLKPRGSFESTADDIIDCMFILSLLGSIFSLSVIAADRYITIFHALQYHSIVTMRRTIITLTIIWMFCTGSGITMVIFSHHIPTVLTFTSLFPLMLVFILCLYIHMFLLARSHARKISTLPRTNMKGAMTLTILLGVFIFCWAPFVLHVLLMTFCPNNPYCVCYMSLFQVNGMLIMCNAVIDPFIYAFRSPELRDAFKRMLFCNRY
T1 sequence (Q9D159 whole entry): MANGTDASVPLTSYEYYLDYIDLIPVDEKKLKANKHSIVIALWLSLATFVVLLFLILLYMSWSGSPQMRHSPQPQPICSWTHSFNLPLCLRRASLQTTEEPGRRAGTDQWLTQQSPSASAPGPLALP
Excerpt: ACTH analog compounds that bind to adrenal membrane with a greater affinity than endogenous unmodified ACTH, and are able to displace unmodified ACTH can be identified using an in vitro Serum-free Adrenal Competitive Binding Assay (Example 3). […] A higher CPM level indicates the presence of greater amounts of the radiolabelled compound. […] Column 220 indicates the level of radio-labeled unmodified mACTH(1-24) detected after combining the explanted adrenal membrane with only the radio-labeled mACTH(1-24) for 2 hours (no competitive binding). Columns 230, 240, and 250 show the results of competitive binding assays for binding of non-radio-labeled (“cold”) mACTH(1-24) to displace the radio-labeled mACTH(1-24) from the explanted adrenal membrane (measured in column 220) by competitive binding to receptors such as MC-2R on the adrenal membrane. […]
ACTH analogs with the ability to bind adrenal receptors with a greater affinity than compounds with known adrenal binding activity (preferably ACTH) can also be identified by performing an in vitro Adrenal Competitive Binding Assay, whereby measurement of the reduction in the amount of the radiolabelled adrenal-binding compound (e.g., ACTH) is measured at various concentrations of non-radio-labeled ACTH analog test compound in a medium containing explanted adrenal membrane. […]

[3] = cited from earlier work

Substance: N-Ser^1-Tyr-Ser-Met-Glu^5-His-Phe-Arg-Trp-Gly^10-Lys-Pro-Val-Gly-Lys^15-Lys-Arg-Arg-Pro-Val^20-Lys-Val-Tyr-Pro-Ac [mACTH(1-24), reference compound]
- serum corticosterone at 180 minutes [1]: 500 ± 76 ng/mL
- serum corticosterone at 180 minutes ([1]; listed as ACTH): 500 ± 76 ng/mL
- displacement of radio-labeled mACTH(1-24) from explanted adrenal membrane [2]: displacement of the radio-labeled mACTH(1-24)
- half life in blood [3]: less than 20 minutes
